Earlier results in patent US20230137840A1, “MINT MASK AND METHODS OF USE THEREOF” (Georgetown University, priority 2016, published 2023).

Key:
[1] = molecular target: transient receptor potential melastatin 8 (TRPM8) (Homo sapiens, UniProt Q7Z2W7); conditions: present in cold-sensitive sensory neurons
[2] = tested on: patients with chronic cough; conditions: menthol inhalation
nasal resistance = conditions: several studies
chemical irritants = conditions: menthol vapor; irritants including acrolein, acetic acid, cyclohexanone
cough reflex = conditions: menthol vapor; taste of sucrose
[3] = molecular target: transient receptor potential ankyrin 1 (TRPA1) (Homo sapiens, UniProt O75762); conditions: irritant-sensing channel
bronchoconstriction = conditions: guinea pigs
asthmatics = conditions: nebulized, 10 mg twice daily for four weeks; 23 asthmatics
[4] = tested on: cough after fiberoptic bronchoscopy; conditions: premedication with 1% menthol inhalation
cough = conditions: guinea pigs
[5] = tested on: upper airway resistance in normal subjects; conditions: inhaled; ten normal subjects

Chain of transient receptor potential melastatin 8 (TRPM8) (Q7Z2W7 whole entry, species assumed): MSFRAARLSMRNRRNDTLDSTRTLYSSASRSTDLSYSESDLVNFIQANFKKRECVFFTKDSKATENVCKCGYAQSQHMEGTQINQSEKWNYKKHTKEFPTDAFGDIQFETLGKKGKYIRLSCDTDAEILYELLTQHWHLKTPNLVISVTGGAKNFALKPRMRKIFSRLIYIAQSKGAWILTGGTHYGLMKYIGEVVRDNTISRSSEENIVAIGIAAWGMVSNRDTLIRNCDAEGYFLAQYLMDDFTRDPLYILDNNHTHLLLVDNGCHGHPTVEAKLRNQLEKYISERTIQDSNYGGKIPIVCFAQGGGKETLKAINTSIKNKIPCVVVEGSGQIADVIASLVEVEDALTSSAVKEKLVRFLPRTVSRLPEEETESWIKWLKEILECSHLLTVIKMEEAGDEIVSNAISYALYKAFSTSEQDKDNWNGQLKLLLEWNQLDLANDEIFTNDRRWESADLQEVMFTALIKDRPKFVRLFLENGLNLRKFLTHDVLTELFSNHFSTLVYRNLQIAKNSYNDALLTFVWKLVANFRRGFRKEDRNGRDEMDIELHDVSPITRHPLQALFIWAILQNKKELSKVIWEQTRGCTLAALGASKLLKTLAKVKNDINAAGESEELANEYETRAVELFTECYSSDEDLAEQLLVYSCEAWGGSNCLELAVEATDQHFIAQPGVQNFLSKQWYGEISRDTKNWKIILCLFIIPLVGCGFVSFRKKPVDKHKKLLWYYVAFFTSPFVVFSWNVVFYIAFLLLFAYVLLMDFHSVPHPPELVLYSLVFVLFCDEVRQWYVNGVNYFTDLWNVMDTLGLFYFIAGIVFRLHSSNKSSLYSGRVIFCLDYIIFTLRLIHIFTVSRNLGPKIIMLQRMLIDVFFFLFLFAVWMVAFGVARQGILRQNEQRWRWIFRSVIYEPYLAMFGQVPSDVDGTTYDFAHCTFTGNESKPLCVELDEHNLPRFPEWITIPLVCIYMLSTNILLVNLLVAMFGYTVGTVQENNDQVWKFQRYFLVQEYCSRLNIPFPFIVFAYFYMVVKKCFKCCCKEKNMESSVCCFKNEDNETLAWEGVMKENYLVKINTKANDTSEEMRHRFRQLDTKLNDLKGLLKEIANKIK
Chain of transient receptor potential ankyrin 1 (TRPA1) (O75762 whole entry, species assumed): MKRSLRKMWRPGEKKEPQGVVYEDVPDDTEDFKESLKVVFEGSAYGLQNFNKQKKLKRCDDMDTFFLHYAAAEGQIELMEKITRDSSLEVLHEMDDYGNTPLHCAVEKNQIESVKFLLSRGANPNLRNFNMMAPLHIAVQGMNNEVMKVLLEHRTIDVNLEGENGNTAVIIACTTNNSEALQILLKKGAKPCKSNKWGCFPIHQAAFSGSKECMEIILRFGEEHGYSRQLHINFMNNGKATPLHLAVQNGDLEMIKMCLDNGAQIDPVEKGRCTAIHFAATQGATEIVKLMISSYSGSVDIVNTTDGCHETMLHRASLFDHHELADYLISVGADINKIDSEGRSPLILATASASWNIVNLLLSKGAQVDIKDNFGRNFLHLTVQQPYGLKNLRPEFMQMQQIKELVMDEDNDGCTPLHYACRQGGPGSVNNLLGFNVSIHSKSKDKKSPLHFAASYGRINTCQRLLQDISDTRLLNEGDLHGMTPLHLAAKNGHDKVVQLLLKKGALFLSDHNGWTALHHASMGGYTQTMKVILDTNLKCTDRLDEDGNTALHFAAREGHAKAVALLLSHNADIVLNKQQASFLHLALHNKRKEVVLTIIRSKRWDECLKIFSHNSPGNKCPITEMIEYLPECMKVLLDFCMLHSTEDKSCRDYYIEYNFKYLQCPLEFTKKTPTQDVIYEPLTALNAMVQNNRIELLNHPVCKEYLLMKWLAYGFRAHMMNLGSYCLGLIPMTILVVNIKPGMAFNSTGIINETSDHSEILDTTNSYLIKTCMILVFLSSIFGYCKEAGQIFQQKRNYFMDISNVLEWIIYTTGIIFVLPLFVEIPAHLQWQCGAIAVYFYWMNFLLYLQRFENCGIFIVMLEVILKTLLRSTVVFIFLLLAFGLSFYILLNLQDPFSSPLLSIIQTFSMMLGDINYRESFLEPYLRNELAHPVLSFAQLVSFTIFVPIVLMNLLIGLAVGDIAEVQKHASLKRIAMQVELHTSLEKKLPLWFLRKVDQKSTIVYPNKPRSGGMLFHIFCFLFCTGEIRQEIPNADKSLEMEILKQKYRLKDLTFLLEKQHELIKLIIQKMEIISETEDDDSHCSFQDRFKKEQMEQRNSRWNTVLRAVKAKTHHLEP

Compound	interaction with TRPM8 [1]	cough sensitivity to inhaled capsaicin [2]	effect on inspiratory flows [2]	effect on nasal resistance (nasal resistance)	reactivity to chemical irritants (chemical irritants)	cough reflex to capsaicin challenge (cough reflex)	interaction with TRPA1 [3]	bronchial contraction due to high extracellular potassium (bronchial smooth muscle)	bronchial contraction due to methacholine (bronchial smooth muscle)	capsaicin-induced bronchoconstriction (bronchoconstriction)	neurokinin A-induced bronchoconstriction (bronchoconstriction)	relaxation of bronchi preconstricted with acetylcholine or potassium chloride (bronchi)	diurnal variation in peak expiratory flow rate (PEER) (asthmatics)	effect on FEV1 (forced expiratory volume at 1 second) (asthmatics)	effect on VC (vital capacity) (asthmatics)	use of metered dose inhalers (asthmatics)	wheezing episodes (asthmatics)	effect on cough after fiberoptic bronchoscopy [4]	antitussive (cough suppressant) effect (cough)	effect on upper airway resistance [5]
CC(C)[C@@H]1CC[C@@H](C)C[C@H]1O [menthol, (1R,2S,5R)-2-Isopropyl-5-methylcyclohexanol]	interacts	reduced cough sensitivity	had an effect	no effect	reduces reactivity	reduced cough reflex	interacts	inhibits	inhibits	attenuates	attenuates	relaxes	decreased	no effect	no effect	reduced use	reduced wheezing episodes	no effect	antitussive (cough suppressant) effects	no effect
OC[C@H]1O[C@@](CO)(O[C@H]2O[C@H](CO)[C@@H](O)[C@H](O)[C@H]2O)[C@@H](O)[C@@H]1O [sucrose]						reduced cough reflex														
